Reference: the NIST ThermoML archive (doi:10.1021/je900259b)
± gives the expanded uncertainty stated by the source.

How the values were obtained:
[1] = Liquid; for mass density: 298.15 K, 101.33 kPa, Vibrating tube method; for vapor or sublimation pressure: Closed cell (Static) method; for Normal boiling temperature: Ebulliometric method (Recirculating still)
[2] = refractive index (Na D-line) (dimensionless); conditions: 298.15 K; 101.33 kPa; Liquid; Standard Abbe refractometry

Question: Which results are given for `COCCO` [2-methoxyethan-1-ol]?
Answer: mass density [1]: 960.02 ± 0.06 kg/m3; vapor or sublimation pressure ([1]; 345.94 K): 14.98 ± 0.2 kPa; vapor or sublimation pressure ([1]; 349.54 K): 17.51 ± 0.2 kPa; vapor or sublimation pressure ([1]; 352.72 K): 20.02 ± 0.2 kPa; vapor or sublimation pressure ([1]; 355.49 K): 22.45 ± 0.2 kPa; vapor or sublimation pressure ([1]; 358.12 K): 25.02 ± 0.2 kPa; vapor or sublimation pressure ([1]; 360.51 K): 27.53 ± 0.21 kPa; vapor or sublimation pressure ([1]; 362.72 K): 29.98 ± 0.21 kPa; vapor or sublimation pressure ([1]; 364.76 K): 32.52 ± 0.21 kPa; vapor or sublimation pressure ([1]; 366.62 K): 34.91 ± 0.21 kPa; vapor or sublimation pressure ([1]; 368.51 K): 37.49 ± 0.21 kPa; vapor or sublimation pressure ([1]; 370.14 K): 39.92 ± 0.21 kPa; vapor or sublimation pressure ([1]; 371.85 K): 42.51 ± 0.21 kPa; vapor or sublimation pressure ([1]; 373.35 K): 44.91 ± 0.21 kPa; vapor or sublimation pressure ([1]; 374.89 K): 47.49 ± 0.21 kPa; vapor or sublimation pressure ([1]; 376.28 K): 49.96 ± 0.21 kPa; vapor or sublimation pressure ([1]; 377.65 K): 52.42 ± 0.22 kPa; vapor or sublimation pressure ([1]; 378.98 K): 54.96 ± 0.22 kPa; vapor or sublimation pressure ([1]; 380.23 K): 57.48 ± 0.22 kPa; vapor or sublimation pressure ([1]; 381.44 K): 59.94 ± 0.22 kPa; vapor or sublimation pressure ([1]; 382.64 K): 62.46 ± 0.22 kPa; vapor or sublimation pressure ([1]; 383.74 K): 64.87 ± 0.22 kPa; vapor or sublimation pressure ([1]; 384.89 K): 67.49 ± 0.23 kPa; vapor or sublimation pressure ([1]; 385.95 K): 69.92 ± 0.23 kPa; vapor or sublimation pressure ([1]; 387.02 K): 72.45 ± 0.23 kPa; vapor or sublimation pressure ([1]; 388.02 K): 74.99 ± 0.23 kPa; vapor or sublimation pressure ([1]; 388.98 K): 77.41 ± 0.23 kPa; vapor or sublimation pressure ([1]; 389.94 K): 79.86 ± 0.23 kPa; vapor or sublimation pressure ([1]; 390.92 K): 82.45 ± 0.24 kPa; vapor or sublimation pressure ([1]; 391.85 K): 84.96 ± 0.24 kPa; vapor or sublimation pressure ([1]; 392.74 K): 87.49 ± 0.24 kPa; vapor or sublimation pressure ([1]; 393.61 K): 89.96 ± 0.24 kPa; vapor or sublimation pressure ([1]; 394.47 K): 92.48 ± 0.24 kPa; vapor or sublimation pressure ([1]; 395.32 K): 94.94 ± 0.25 kPa; vapor or sublimation pressure ([1]; 396.12 K): 97.48 ± 0.25 kPa; vapor or sublimation pressure ([1]; 396.96 K): 100.03 ± 0.25 kPa; vapor or sublimation pressure ([1]; 397.37 K): 101.3 ± 0.3 kPa; refractive index [2]: 1.4006 ± 0.0005

Question: With `C1CCCCC1` [cyclohexane] as the compound, how does the mass density [1] read?
Answer: 773.82 ± 0.13 kg/m3

Question: And the Normal boiling temperature [1]?
Answer: 80.58 ± 0.2 °C

Question: And the refractive index [2]?
Answer: 1.4238 ± 0.0005

Question: Which results are given for `C1=CCCCC1` [cyclohexene]?
Answer: mass density [1]: 805.69 ± 0.14 kg/m3; Normal boiling temperature [1]: 82.82 ± 0.2 °C; refractive index [2]: 1.4444 ± 0.0005
